According to patent publication US8871772B2, “Therapeutic methods and compounds” (Ampio Pharmaceuticals, Inc., priority 2008, dated 2014):

Assays:
Assay type in all cases: cell-based
[1] = system: MMP-9; experiment: Release of MMP-9 from STTG astrocytoma cells, gelatin zymogram; conditions: data not shown
[2] = system: MMP-9; experiment: Release of MMP-9 from primary human microglial cells, gelatin zymogram; conditions: supernatants concentrated 10×
[3] = system: human umbilical vein endothelial cells (HUVECs); experiment: Proliferation of HUVECs, Promega cell titer assay; conditions: 72 hours
Method: Assays were performed to determine the effect of Cpd. 5 on proliferation of human umbilical vein endothelial cells (HUVECs). Passage 4-5 HUVECs, human source lot number 13047 (obtained from Lonza) were put into the wells of a 96-well tissue culture plate at 1200 cells/well in 100 μl endothelial growth medium-2 (EGM-2) complete medium (obtained from Lonza). A 50 mM stock solution of Cpd. 5 was prepared in DMSO and frozen at −80° C. Aliquots of the stock solution were removed and dilutions containing from 50 μM to 300 μM Cpd. 5 were made in EGM-2 complete medium (Lonza). Controls containing equivalent amounts of DMSO to the 200 μM solution were mixed for comparative purposes. 100 μl of the resulting solutions were then added to the cells in the 96-well culture plates in triplicate and placed in a 37° C. incubator with 5% CO2 for 72 hours.
Following incubation, cell proliferation was assayed by adding 20 μl Promega cell titer aqueous one reagent to each well. Promega cell titer reagent is a solution containing a tetrazolium dye that is reduced by living cells to a formazan dye, and this reduction is proportional to the number of living cells present in the well. The plates were incubated at 37° C. for an additional 4 hours to allow the colorimetric assay to develop, and the OD of each well was determined in a microplate reader using a 530 nm filter. The OD of wells containing cell titer reagent in culture medium with no cells was subtracted from the OD of all experimental readings.
The % decrease of the total cell titer signal was determined using the following formula. ((Diluent OD−Experimental OD)/Diluent OD))×100. Data are presented in Table 7 as mean % decrease of cell titer signal of three separate experiments, plus or minus standard deviation. In the mean % decrease column, a positive number means a decrease in cell titer signal, while a negative number means an increase in cell titer signal. The p values were calculated versus diluent controls.

[4] = system: endothelial cells; experiment: Endothelial cell tube formation; conditions: 50 μM or 100 μM
Method: When endothelial cells are cultured on extracellular matrix protein gels in the presence of angiogenic signals, they arrange themselves into structures loosely resembling capillary blood vessels (“tube formation”). Cpd.

COC(=O)C(c1ccc(-c2ccccc2)cc1)C1NC(=O)CNC1=O (stereo not shown) [Cpd. 5, biphenyl-4-yl-(3,6-dioxo-piperazin-2-yl)-acetic acid methyl ester]
effect on the release of MMP-9 from the STTG cells [1]: no effect | inhibition at 100 µM ([2]; 100 μM, read-out: inhibition of the release of active MMP-9): 35.9% | inhibition of the release of pro-MMP-9 ([2]; data not shown): did not inhibit | MEAN % DECREASE of cell titer signal ([3]; 25 μM): −48.60% | MEAN % DECREASE of cell titer signal ([3]; 50 μM): −14.44% | MEAN % DECREASE of cell titer signal ([3]; 100 μM): 62.04% | effect on tube formation [4]: no observable effect
